According to US20240009436A1, “LOCALIZED […] OF […] […] AGENTS USING FOCUSED ULTRASOUND” (priority 2020, published 2024):

Key:
[1] = rat barrel cortex; cited from earlier work
brain = conditions: cited from earlier work
[2] = system: VEPs in primary visual cortex (V1); test: Visually evoked potentials (VEPs) in V1 after delivery to vS1; assay type: in vivo, rat; conditions: muscimol delivered to vS1 using AU-FUS
Experimental: To rule out that the observed modulation of vM1 could be due to spreading of muscimol from vS1, signals were recorded from a cortical area close to vS1 but without significant connectivity with vS1: Muscimol was delivered to vS1 using AU-FUS, and the visually evoked potentials (VEPs) were measured from primary visual cortex (V1). […] V1 and vM1 recordings were done on separate cohorts. The same ultrasound parameters were used for both vS1-vM1 and vS1-V1 paradigms.
The protocol used for vS1-V1 was the same as vS1-vM1 paradigm with the following exceptions: FUS sonication coordinates were changed to AP: −2.3 mm, ML: 6.5 mm, DV: 3.3 mm from skull surface and FUS angle was changed from 30° to 34° to create space for electrode insertion to V1. A more lateral region of vS1 was sonicated to achieve better coupling with skull with the new angling of the FUS transducer. Electrode insertion coordinates were changed for V1 recording to AP: −5.5-6.0 mm, ML: 3.2-3.5 mm, DV: 1.6-2.0 mm to ensure that recording is done from cortical layers of V1. […] Instead of wEPs, VEPs were recorded by visual stimulation. […]
All electrophysiological data analysis was done in Python, version 3.6, using custom scripts. […] For wEP and VEP analysis, moving averages were calculated for a window step size of 180 whisker deflections/visual stimuli (moving step size is 1 deflection/visual stimulus). […]

[3] = system: vS1-vM1 circuit (wEPs in vM1); test: Whisker-evoked potentials (wEPs) in vM1 after delivery to vS1 in anesthetized rats; assay type: in vivo, rat
Experimental: The AU-FUS sequence [AU-FUS (in vivo); see Table 1] was tested in vivo by manipulating a specific cortical network without opening the BBB. Rat vibrissa motor cortex (vM1) receives whisker sensory information (˜80%) through projections from vibrissa sensory cortex (vS1, “Barrel cortex”). When rodent whiskers are mechanically deflected, evoked activity propagates from brainstem via thalamus to vS1, and then to vM1. During simultaneous recordings the peaks of whisker-evoked potentials (wEPs) were observed first in vS1 and ˜3.0 ms later in vM1. It was tested whether inhibiting vS1 by the novel technique would suppress wEPs in vM1 in anesthetized rats. The FUS transducer was positioned above the intact skull and focused on vS1. Using a multielectrode array, the wEPs and the whisker-evoked multi-unit activity in vM1 were monitored online. In parallel, muscimol-loaded UC-carriers were continuously (i.v.) injected. The AU-FUS sequence was applied repeatedly on vS1 to aggregate the UC-carriers and to uncage muscimol. Muscimol is an agonist of ionotropic GABAA receptors, the major receptor responsible for fast inhibitory transmission in the brain, which […] the BBB.
The animal was anesthetized, a small craniotomy was performed over vM1 (TZ region) or V1 for inserting a recording probe 140, and a FUS transducer 136 was positioned on the intact skull above vS1 with the help of stereotaxic coordinates and coupled with sterile ultrasound gel and water collimator.
Muscimol-loaded UC-carriers were injected intravenously through the tail vein using an infusion pump 110. vM1 and V1 recordings were performed on separate cohorts.
Whiskers were cut to around 15 mm length. The 8-12 largest whiskers were inserted into a glass capillary tube which was attached to a piezo actuator (T223-H4CL-503X, Piezo Systems). The piezo actuator was shielded with a custom-made copper cover. The whiskers were deflected with 120 Hz cosine pulses (292 mm/s velocity, displaced 2.34 mm in 8 ms) which were generated in LabView (National Instruments) and converted into an analog signal (DAC NI, USB-6211) which then drove the piezo actuator. Stimulus presentation was synchronized with the electrophysiological recordings with a TTL signal at stimulus onset. Whiskers were continuously stimulated at a repetition rate of 0.3 Hz.
All electrophysiological data were recorded with a RHD2000 system (Intan Technologies) with 30 kS/s sampling rate. All stereotaxic coordinates were determined with respect to bregma. A 32 channel Neuronexus probe (A2x16-10 mm-100-500-177-A32, 15 or 50 μm thick) attached to a motorized 3D arm (StereoDrive-960HD, Neurostar), fixed outside of the stereotaxic frame, was inserted into the vM1 (Coordinates AP: 1-2 mm, ML: 0.5-1 mm, depending on the vasculature, DV: 1.5-2 mm from pia) at 50° to the coronal plane. The probe was initially inserted ˜250-500 μm below the cortical surface. The FUS transducer was integrated with an acoustic collimator which was filled with degassed and deionized water and contained a polystyrene film (McMaster-Carr) at the end. The collimator's shape was designed according to the FUS transducer's geometry so that it would not interfere with the FUS beam. This assembly was stereotaxically positioned such that the FUS focal volume was targeted to vS1 (Coordinates AP: −2.3 mm, ML: 6 mm, DV: 3.3 mm from skull surface) at a 30° angle with respect to the sagittal plane such that the focal volume of FUS beam targeted cortical layers of vS1. […]

[4] = i.v., without AU-FUS or UC-carriers

## NCc1cc(=O)[nH]o1 [muscimol]
[1]
  diffusion coefficient D: 8.7×10^−6 cm^2 s^−1
brain
  amount of systemic muscimol required for brain inactivation: ~1.6 mg/kg
[2]
  change of VEPs recorded from V1: No statistically significant changes
[3]; free muscimol (250 ng) and vehicle-loaded UC-carriers with AU-FUS (control)
  change of wEPs in vM1, baseline vs post-treatment: No statistically significant changes
[3]; [4]
  systemic muscimol needed for comparable reduction of wEPs: at least 260 μg
  systemic muscimol needed for comparable reduction of wEPs, relative to measured payload of the UC-carriers: at least 1300 times
[3]; muscimol uncaged in vS1 by AU-FUS
  time of maximum inhibition in vM1: ≤ 20 min
[3]; systemic injection of free muscimol (250 ng) with AU-FUS (control)
  change of wEPs in vM1, baseline vs post-treatment: No statistically significant changes
